US20030073695A1, “Methods of use of gemifloxacin compounds against fluoroquinolone resistant Streptococcus pneumoniae bacteria” (priority 2000, published 2003)
In brackets after ≈: the same amount, converted by molar mass. Blank lines part the entries; values can stand above or below the molecule they belong to.

Legend:
[1] = tested on: S. pneumoniae with reduced susceptibility to CIP; assay: MIC by NCCLS microbroth dilution, 80 clinical isolates with CIP MIC ≧2 μg/ml; format: cell-based; details: Streptococcus pneumoniae, 80 isolates with CIP MICs ≧2 μg/ml
Description: MICs to penicillin (herein “PEN”), CIP, levofloxacin (herein “LEV”), TFX, moxifloxacin (herein “MOX”), grepafloxacin (herein “GRE”), gatifloxacin (herein “GAT”), sparfloxacin (herein “SPA”), and gemifloxacin (herein “GFX”) were determined using a microbroth dilution technique described by the NCCLS. Topoisomerase IV (parC) and DNA gyrase (gyrA) mutations were confirmed by sequencing the QRDR region of each gene. Serotyping and PFGE were performed on all isolates. […] Breakpoints have not been established for all fluoroquines, thus percentage resistance was not calculated.

[2] = tested on: CFX and TFX susceptible and resistant S. pneumoniae; assay: Postantibiotic effect (PAE), 2 hour exposure, viable colony counting; format: cell-based, Streptococcus pneumoniae; details: for mean PAE at 4× MIC: exposure 2 hours at 4× MIC; for mean PAE at 10× MIC: exposure 2 hours at 10× MIC
Description: This invention was based, in part, on analyses evaluating the comparative activity of gemifloxacin against various strains of S. pneumoniae.
MICs were determined using a microbroth dilution technique described by the NCCLS. Topisomeriase IV (parC) and DNA gyrase (gyrA) mutations were confirmed by sequencing the QRDR region of each gene. […] Antibiotics were removed using dilution into sterile media and the PAE assessed using a viable colony counting technique.

[3] = GFX, isolates not restricted to susceptible
[4] = isolates susceptible to the tested drug

MIC50 ([1]; MIC50 of Table 1): 0.5 µg/mL (≈ 1.33 µM)
MIC50 ([1]; Table 1 MIC50): 4 µg/mL (≈ 10.7 µM)
MIC [1]: 0.25 to 8 µg/mL (≈ 0.666 to 21.3 µM)
SMILES: COc1c(N2CCNC(C)C2)c(F)cc2c(=O)c(C(=O)O)cn(C3CC3)c12 (centres unmarked) [GAT, gatifloxacin]

MIC50 ([1]; MIC50 of Table 1): 0.5 µg/mL (≈ 1.39 µM)
MIC50 ([1]; Table 1 MIC50): 8 µg/mL (≈ 22.3 µM)
MIC [1]: 0.12 to 8 µg/mL (≈ 0.334 to 22.3 µM)
SMILES: Cc1c(F)c(N2CCNC(C)C2)cc2c1c(=O)c(C(=O)O)cn2C1CC1 (centres unmarked) [GRE, grepafloxacin]

MIC50 ([1]; MIC50 of Table 1): 2 µg/mL (≈ 5.53 µM)
MIC50 ([1]; Table 1 MIC50): 16 µg/mL (≈ 44.3 µM)
MIC [1]: 1 to 32 µg/mL (≈ 2.77 to 88.6 µM)
SMILES: C[C@H]1COc2c(N3CCN(C)CC3)c(F)cc3c(=O)c(C(=O)O)cn1c23 [LEV, levofloxacin]

More lines, now with the values behind:

SMILES: CO/N=C1\CN(c2nc3c(cc2F)c(=O)c(C(=O)O)cn3C2CC2)CC1CN (racemic) [GFX, (R,S)-7-(3-aminomethyl-4-methoxyiminopyrrolidin-1-yl)-1-cyclopropyl-6-fluoro-4-oxo-1,4-dihydro-1,8-naphthyridine-3-carboxylic acid]
MIC50 ([1]; MIC50 of Table 1): 0.06 µg/mL (≈ 0.154 µM)
MIC50 ([1]; Table 1 MIC50): 0.25 µg/mL (≈ 0.642 µM)
MIC [1]: 0.03 to 0.5 µg/mL (≈ 0.077 to 1.28 µM)
mean PAE at 4× MIC [2, 3]: 2.7 h
mean PAE at 10× MIC [2, 3]: 3.8 h
difference in duration of PAE between CFX or TFX susceptible and resistant strains ([2]; p<0.05): no significant difference

SMILES: COc1c(N2C[C@@H]3CCCN[C@@H]3C2)c(F)cc2c(=O)c(C(=O)O)cn(C3CC3)c12 [MOX, moxifloxacin]
MIC50 ([1]; MIC50 of Table 1): 0.25 µg/mL (≈ 0.623 µM)
MIC50 ([1]; Table 1 MIC50): 2 µg/mL (≈ 4.98 µM)
MIC [1]: 0.12 to 4 µg/mL (≈ 0.299 to 9.96 µM)

SMILES: C[C@@H]1CN(c2c(F)c(N)c3c(=O)c(C(=O)O)cn(C4CC4)c3c2F)C[C@H](C)N1 [SPA, sparfloxacin]
MIC50 ([1]; MIC50 of Table 1): 0.5 µg/mL (≈ 1.27 µM)
MIC50 ([1]; Table 1 MIC50): 16 µg/mL (≈ 40.8 µM)
MIC [1]: 0.25 to 32 µg/mL (≈ 0.637 to 81.5 µM)

SMILES: N[C@@H]1[C@H]2CN(c3nc4c(cc3F)c(=O)c(C(=O)O)cn4-c3ccc(F)cc3F)C[C@@H]12 [TFX, trovafloxacin]
MIC50 ([1]; MIC50 of Table 1): 0.5 µg/mL (≈ 1.2 µM)
MIC50 ([1]; Table 1 MIC50): 4 µg/mL (≈ 9.61 µM)
MIC [1]: 0.06 to 8 µg/mL (≈ 0.144 to 19.2 µM)
mean PAE at 4× MIC [2, 4]: 2.1 h
mean PAE at 10× MIC [2, 4]: 3.2 h
